Measurements reported in patent publication US20250177359A1, “COMPOUNDS FOR USE IN THE TREATMENT OF CANCER AND INFLAMMATORY CONDITIONS” (priority 2022, published 2025).
Where two headings read alike, the source gives them in different places.

Target: T1, TNKS2 (Homo sapiens, UniProt Q9H2K2)
T1 sequence (Q9H2K2 1-1166): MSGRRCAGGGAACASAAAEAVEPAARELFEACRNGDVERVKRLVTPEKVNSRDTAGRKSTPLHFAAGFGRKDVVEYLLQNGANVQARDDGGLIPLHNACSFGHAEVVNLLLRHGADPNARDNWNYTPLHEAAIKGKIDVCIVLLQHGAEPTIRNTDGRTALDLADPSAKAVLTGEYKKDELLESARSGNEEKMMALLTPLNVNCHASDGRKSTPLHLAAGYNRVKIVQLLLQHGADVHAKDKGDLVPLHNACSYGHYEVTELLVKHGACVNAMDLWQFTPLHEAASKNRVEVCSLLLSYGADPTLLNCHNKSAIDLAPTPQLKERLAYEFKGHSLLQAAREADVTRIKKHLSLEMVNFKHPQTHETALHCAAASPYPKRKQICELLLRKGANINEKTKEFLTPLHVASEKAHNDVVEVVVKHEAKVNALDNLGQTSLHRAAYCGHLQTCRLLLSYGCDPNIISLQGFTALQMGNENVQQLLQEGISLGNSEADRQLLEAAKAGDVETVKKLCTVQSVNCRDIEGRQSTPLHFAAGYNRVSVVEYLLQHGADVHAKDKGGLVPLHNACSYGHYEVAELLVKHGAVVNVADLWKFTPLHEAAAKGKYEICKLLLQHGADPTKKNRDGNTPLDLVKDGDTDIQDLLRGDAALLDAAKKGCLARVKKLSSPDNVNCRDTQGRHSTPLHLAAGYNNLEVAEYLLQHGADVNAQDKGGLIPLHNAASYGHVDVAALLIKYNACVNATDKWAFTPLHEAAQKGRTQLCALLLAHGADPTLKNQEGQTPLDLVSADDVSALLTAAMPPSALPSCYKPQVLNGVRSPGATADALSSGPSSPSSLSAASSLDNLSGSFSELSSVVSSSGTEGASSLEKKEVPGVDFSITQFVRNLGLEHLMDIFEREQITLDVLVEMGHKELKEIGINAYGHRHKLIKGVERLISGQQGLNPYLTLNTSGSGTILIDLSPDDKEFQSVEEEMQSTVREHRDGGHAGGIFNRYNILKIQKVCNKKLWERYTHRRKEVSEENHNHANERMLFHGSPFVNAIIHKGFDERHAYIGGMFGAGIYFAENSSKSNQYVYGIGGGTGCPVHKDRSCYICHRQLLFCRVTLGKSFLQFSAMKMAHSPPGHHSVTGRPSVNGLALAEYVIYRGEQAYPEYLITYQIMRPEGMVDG
Assay: biochemical
Description: All starting materials, reagents, and solvents were purchased from common commercial suppliers and were used as such without further purification. […] Organic solutions were dried over anhydrous Na2SO4 and concentrated with rotary evaporator at low pressure. All the reactions were routinely checked by thin-layer chromatography (TLC) on silica gel 60F254 (Merck) and visualized by using UV and iodine. Flash chromatography separations were carried out on Merck silica gel 60 (mesh 230-400) or by using automated Buchi Reveleris X2-UV with column FP Ecoflex Si 12 g. Yields were of purified products and were not optimized. ^1HNMR spectra were recorded at 400 MHz (Bruker Avance DRX-400), while ^13CNMR spectra were recorded at 101 MHz (Bruker Avance DRX-400). Chemical shifts are given in ppm (δ) relative to TMS. […] Mating constant (J) are reported in Hz. The purity of the tested compounds was evaluated by HPLC analysis using Jasco LC-4000 instrument equipped with a UV-Visible Diode Array Jasco-MD4015 (Jasco Corporation, Tokyo, Japan), and XTerra MS C18 column, 5 μm×4.6 mm×150 mm (Waters Corporation, Massachusetts, USA). Chromatograms were analyzed by ChromNAV2.0 Chromatography Data System software. […] The peak retention time (ret. time) is given in minutes. […] 1-Isobutoxy-4-methoxy-2-nitrobenzene (113). Isobutyl alcohol (0.6 mL, 6.43 mmol) was added, under nitrogen atmosphere at 0° C., to a suspension of NaH (0.26 g, 6.43 mmol) in dry DMF. After 15 minutes, 1-fluoro-4-methoxy-2-nitrobenzene 112 (1 g, 5.84 mmol) was also added and the reaction mixture was stirred at 80° C. for 4 h. […] (2-Isobutoxy-5-methoxyphenyl)amine (114). Zn (1.57 g, 24 mmol) and NH4C1 (2.45 g, 40 mmol) were added to a solution of 113 (0.46 g, 2 mmol) in acetone/H2O (50 mL, ratio 5:1). The reaction mixture was stirred at 60° C. for 3 h and, then, it was filtered over celite. […] N-(2,5-diethoxyphenyl)thiourea (55). […] N-(2-isobutoxy-5-methoxyphenyl)thiourea (115). […] A solution of Br2 (0.2 mL, 3.3 mmol) in CHCl3 (5 mL) was slowly added to a suspension of 45 (0.6 g, 3.3 mmol) in CHCl3 (13 mL), at 0° C. The reaction mixture was stirred at r.t. for 4 h and, then, a 10% solution of Na2SO3 in water was added to the mixture. […] 4,7-Diethoxy-1,3-benzothiazol-2-amine (66). […] 4-Isobutoxy-7-methoxy-1,3-benzothiazol-2-amine (116). […] Hydrazine hydrate (0.23 mL, 4.77 mmol) and CH3COOH (0.12 mL, 2.1 mmol) were added to a suspension of 56 (0.29 g, 1.59 mmol) in ethylene glycol (8 mL), and the reaction mixture was stirred for 24 h at 125° C. […] 6-Ethyl-2-hydrazino-1,3-benzothiazole (69). […] 6-Ispropyl-2-hydrazino-1,3-benzothiazole (70). […] 2-Hydrazino-4,7-dimethoxy-1,3-benzothiazole (73). […] 2-Hydrazino-5,7-dimethoxy-1,3-benzothiazole (75). […] 2-Hydrazino-4,7-Diethoxy-1,3-benzothiazole (77). […] 2-Hydrazino-5-methyl[1,3]thiazolo[5,4-b]pyridine (100). […] A solution of 67 (0.13 g, 0.65 mmol) in formic acid (5 mL) was refluxed for 10 h. The reaction mixture was then poured into ice/water and the pH was neutralized using a saturated solution of NaHCO3.

[1] = read-out: TNKS2 IC50, NAD+ consumption assay, > less than 50% inhibition at highest concentration, >> no inhibition

`COc1ccc(OC)c2c1sc1nnc(N)n12` [Compound 28, 5,8-Dimethoxy[1,2,4]triazolo[3,4-b][1,3]benzothiazol-3-amine] showed an IC50 [1] of 10 µM.

In the case of `Nc1nnc2sc3cc(O)ccc3n12` [Compound 109, 3-Amino[1,2,4]triazolo[3,4-b][1,3]benzothiazol-7-ol], the IC50 is reported as roughly 0.2 µM.

In the case of `Cc1ccc2c(c1)sc1nnc(N)n12` [Compound 22, 7-Methyl[1,2,4]triazolo[3,4-b][1,3]benzothiazol-3-amine], the IC50 [1] is reported as 5.7 µM.

Molecule `Oc1ccc2c(c1)sc1nncn12` [Compound 10] has an IC50 (read-out: TNKS2 IC50, NAD+ consumption assay) of 0.37 µM.
